The test system of the assay is CCRF-CEM cells. Kind of assay: Cell number and apoptosis assays. Format: cell-based, human. As to conditions: IRAK-1,-4 inhibitor 0-20 μM plus titrated drug, apoptosis by 7AAD at 48 hours, FIG. 23. As to the method: TLR ligands were diluted 2-fold. Cell lines (25-40×10^3/well) were cultured for 54 hours, whereas fresh patient-derived T-ALL cells (200×10^3/well) were cultured for 30 hours prior to adding [^3H]-thymidine for 18 hours. After this time point, cells were harvested with a Packard Filter-Mate-96 cell harvester (Perkin Elmer, Waltham, Mass., USA) and counted on Packard Top Count-NXT (Perkin Elmer, Waltham, Mass., USA). Results were expressed as average counts per minute (cpm). In some experiments CCRF-CEM cells were pre-treated with TLR1-TLR2 ligand (Pam3CysK4; 2.5 ug/ml) for 48 hrs, washed, and then cultured in the presence of varying concentrations of FBS. Forty-eight hours later, proliferation (±SD) was determined by ^3H-thymidine incorporation. Alternatively, apoptosis was measured by flow cytometry after staining cells with Annexin-V (BD Pharmingen, San Diego, Calif., USA) and propidium iodide (Sigma). Cell number was counted under microscopy by staining cells with trypan blue.
CCRF-CEM cells were treated with IRAK-1,-4 inhibitor for 24, 48, 72, and 96 hours.
The T-ALL cell line CCRF-CEM was cultured in the presence of 0, 1.2, 5, 10, and 20 μM IRAK-1,-4 inhibitor. (FIG. 23). To each concentration of IRAK-1,-4 inhibitor titrating doses of ABT-737 (1000→15 nM) vincristine, VS (10→0.1 nM), and paclitaxol, PAC (100→1.5 nM). […] Apoptosis was measure 48 hours later by staining cells with 7AAD and analyzed by flow cytometry.

With `CC[C@]1(O)C[C@H]2CN(CCc3c([nH]c4ccccc34)[C@@](C(=O)OC)(c3cc4c(cc3OC)N(C=O)[C@H]3[C@@](O)(C(=O)OC)[C@H](OC(C)=O)[C@]5(CC)C=CCN6CC[C@]43[C@@H]65)C2)C1` [vincristine], the “synergy with IRAK-1,-4 inhibitor” value is listed as “synergy”.
